Laboratory results published in US8440615B2, “Pharmaceutical and/or cosmetic composition containing active-principle activators of aconitase” (Societe d'Extraction des Principes Actifs (Vincience), priority 2007, dated 2013).
Residues, ends and D or L forms follow the SMILES beside them.

What was measured:
aconitase = assay: Total (cytoplasmic and mitochondrial) enzymatic activity of aconitase in fibroblasts, Bioxytech Aconitase-340 kit; assay type: cell-based, human
Experimental: (§1) The aim of this study was to determine the effect of the SEQ ID No. 2 peptide on the enzymatic activity of aconitase. For this, the total enzymatic activity (cytoplasmic and mitochondrial) and the mitochondrial enzymatic activity of aconitase were measured.
Protocol: Normal human fibroblasts were treated with a 1% solution of a 50-ppm SEQ ID No. 2 peptide representative of the peptide family according to the invention, for 48 hr, and were then subjected to UVB radiation of 100 mJ/cm^2. After irradiation, the cells were treated under the same conditions for another 24 hr. Negative controls were achieved under the same conditions, but in the absence of the SEQ ID No. 2 peptide.
To evaluate the enzymatic activity of aconitase, the fibroblasts were then collected and centrifuged in PBS buffer. […]
(§2) The measurement of the enzymatic activity of aconitase was made using the Oxis Bioxytech Aconitase-340 assay kit (Oxis International), according to the following principle: aconitase causes isomerization of the citrate to isocitrate. […] It is the formation of NADPH that is quantified spectrophotometrically at 340 nm. Under the experimental conditions chosen, the rate of NADPH formation is proportional to the quantity of aconitase. The analysis of the kinetics of NADPH appearance enables the concentration of aconitase in the sample to be calculated (in mU/ml)

human dermal fibroblasts = assay type: cell-based; conditions: 48 h, 0.5 ppm
Experimental: The aim of this study was to determine the protective effect of the SEQ ID No. 2 peptide with respect to dermal fibroblasts subjected to an oxidative stress caused by oxygenated water (H2O2) in a concentration of 4 mM or 5 mM. For this, cellular viability tests were performed using the MTT technique. Protocol: Human dermal fibroblasts were treated with a 1% solution of a 50-ppm SEQ ID No. 2 peptide for 24 hours, subjected to an oxidative stress caused by 4 mM or 5 mM of H2O2 for 30 minutes, and then cultivated for another 24 hours in the presence of the same concentration of SEQ ID No. 2 peptide. Controls treated with neither the peptide nor H2O2 and controls treated with the peptide alone were achieved under the same conditions. At the end of the experiment, the cells were incubated in a solution containing 0.1 mg/ml of MTT (3-[4,5-dimethylthiazole-2-yl]-2,5-diphenyltetrazolium bromide) according to the protocol described in example 3

mitochondrial aconitase = molecular target: T1, mitochondrial aconitase (Homo sapiens, UniProt Q99798); assay: Enzymatic activity of mitochondrial aconitase in the mitochondrial fraction of fibroblasts, Bioxytech Aconitase-340 kit; assay type: cell-based; conditions: concentration printed as 0.05 ppm
T1 construct: endogenous in cells; host or cells: normal human fibroblasts, mitochondrial fraction (10,000 g pellet)
T1 sequence (Q99798 28-780): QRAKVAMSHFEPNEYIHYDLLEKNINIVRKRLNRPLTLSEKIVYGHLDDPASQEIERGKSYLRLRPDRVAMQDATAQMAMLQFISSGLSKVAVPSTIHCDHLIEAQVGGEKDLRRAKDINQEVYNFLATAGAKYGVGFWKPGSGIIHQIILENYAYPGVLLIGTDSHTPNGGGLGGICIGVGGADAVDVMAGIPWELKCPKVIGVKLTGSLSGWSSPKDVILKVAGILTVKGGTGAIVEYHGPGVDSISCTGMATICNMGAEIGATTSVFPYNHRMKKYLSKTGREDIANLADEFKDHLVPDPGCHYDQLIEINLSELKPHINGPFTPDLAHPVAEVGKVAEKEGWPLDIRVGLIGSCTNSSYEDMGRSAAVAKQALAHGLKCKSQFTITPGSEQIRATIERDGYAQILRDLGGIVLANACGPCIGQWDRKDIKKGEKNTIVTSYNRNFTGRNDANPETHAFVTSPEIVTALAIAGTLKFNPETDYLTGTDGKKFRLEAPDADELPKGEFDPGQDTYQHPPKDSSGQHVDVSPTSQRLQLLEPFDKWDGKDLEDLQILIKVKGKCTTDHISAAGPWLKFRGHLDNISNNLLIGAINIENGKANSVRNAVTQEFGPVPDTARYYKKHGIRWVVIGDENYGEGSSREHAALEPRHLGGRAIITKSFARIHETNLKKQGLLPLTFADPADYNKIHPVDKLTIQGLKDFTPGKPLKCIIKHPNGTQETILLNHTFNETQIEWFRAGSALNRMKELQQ
Experimental: as §1
[…] After irradiation, the cells were treated under the same conditions for another 24 hr. Negative controls were achieved under the same conditions, but in the absence of the SEQ ID No. 2 peptide.
To evaluate the enzymatic activity of aconitase, the fibroblasts were then collected and centrifuged in PBS buffer. A portion of the cells was then processed to measure total enzymatic activity; another portion was used to isolate the mitochondrial fraction according to the following protocol. […]
as §2

[1] = tested on: normal human keratinocytes; assay: Ultrastructure of mitochondria by electron microscopy; assay type: cell-based; conditions: 1% solution of a 50-ppm mother-solution for 72 hours
Experimental: The aim of this study was to determine the action of the SEQ ID No. 2 peptide on mitochondria, by observing the ultrastructures with the electron microscope.
Protocol: Normal human keratinocytes were treated with a 1% solution of a 50-ppm mother-solution of SEQ ID No. 2 peptide for 72 hours. Negative controls were achieved under the same conditions, but in the absence of the said peptide.
The cells were then fixed using Karnovsky's fixative (20 ml of 16% paraformaldehyde/8 ml of 50% glutaraldehyde/25 ml of 0.2 M sodium phosphate buffer/25 ml of water) for 1 hr at ambient temperature, and then left overnight at 4° C. The culture media were scraped into the Karnovsky's fixative and then the cells were centrifuged for 5 minutes at 5000 rpm. The supernatant was isolated and the pellet resuspended in 1 ml of 0.1 M cacodylate. The samples were then kept at 4° C. until their processing for electron microscopy observation.

[2] = tested on: primary human fibroblasts; assay: Comet test (single-cell gel electrophoresis), DNA damage after UVB irradiation; assay type: cell-based; conditions: UVB 100 mJ/cm^2, 0.5 ppm peptide
Experimental: A study of the cytoprotective effect of SEQ ID No. 2 peptide was made by evaluating the damage caused at the DNA level. This study was done using the comet (or single-cell gel electrophoresis) test, a quick and sensitive micro-electrophoretic technique that enables breaks in the DNA to be visualized and quantified in individual cells.
Protocol: Primary human fibroblasts were seeded in […] dishes. When the cells reached 70% coalescence, they were treated with SEQ ID No. 2 peptide diluted to 1% (starting from a 50-ppm solution) for 24 hours. The cells were then subjected to UVB irradiation at 100 mJ/cm^2, then cultivated in the presence of the peptide for another 24 hours. The dishes not treated with the peptide served as controls. A cellular suspension of 100,000 cells/ml was then achieved, 500 μl were removed, inserted into an agarose solution, and run between slide and cover glass. The cells were lysed in the cold. The DNA was then denatured with an alkaline buffer and subjected to a brief electrophoresis (250 mA for 30 minutes), and stained with propidium iodate. The slides were then observed under a fluorescence microscope. An altered cell sees its DNA stretch toward the anode in proportion to the number of breaks present in the DNA, and it forms a “comet”. The highly degraded DNA is found in the “tail” of the comet. An intact cell remains round, and its DNA is then packed into the area of the comet “head”.
The evaluation of DNA breaks was done using image-analyzer software that enables the percentage of DNA degradation to be determined, by means of a quantitative evaluation of the “tail moment”, a parameter defined as the product of the length of the comet by the percentage of DNA in its distal portion.

dermal fibroblasts = assay: Intracellular ATP synthesis, ATP Bioluminescence Assay Kit HS II; assay type: cell-based; conditions: 1% solution of a 50-ppm peptide solution
Experimental: The aim of this study was to determine the effect of the SEQ ID No. 1 peptide on mitochondrial activity. It is the ATP produced by the mitochondria that serves as a biochemical marker for this activity.
Protocol: This study was conducted using an ATP Bioluminescence Assay Kit HS II (Roche Applied Science). Dermal fibroblasts were treated with a 1% solution of a 50-ppm solution containing the SEQ ID No. 1 peptide, representative of the peptide family according to the invention, for a period of 1 to 3 hours. At the end of the incubation time, the tubes were emptied of their medium and rinsed with 2 ml of cold PBS before adding 250 μl of a lysing buffer provided in the kit. The cells of each tube were then scraped up and collected in 14-ml tubes. Each tube was rinsed with 2×500 μl of cold PBS, and the whole was collected again in the respective tubes. […] The ATP measurement was performed on these samples: 50 μl of this dilution was placed in a Luma cuvette and 50 μl of […] was added. After 10 seconds, the luminescence reading was begun. The values were standardized relative to the quantity of proteins for each sample. The measurements were made using the Biocounter M2010A Luma®/3M equipment.

For `CC[C@H](C)[C@H](NC(=O)[C@H](CS)NC(=O)[C@@H](N)CO)C(=O)N[C@@H](CC(N)=O)C(=O)N[C@H](C(N)=O)[C@@H](C)O` [SEQ ID No. 2, Ser-Cys-Ile-Asn-Thr-NH2] (H-SCINT-NH2; N-terminus assumed), the “increase in total enzymatic activity of aconitase compared with untreated control cells” value (aconitase; not irradiated, 1% solution of a 50-ppm peptide, n=5) was 56.3%, the “% viability” value (human dermal fibroblasts) was 121.13% and the “enzymatic activity of mitochondrial aconitase” value (mitochondrial aconitase) was “strongly stimulates”. For the same molecule, the “ultrastructural characteristics of the organelles” value [1] was “ultrastructural characteristics suggesting an increase in metabolic activity”, the “reduction of "tail moment" (DNA damage)” value ([2]; versus UVB control) was 25% and the “Measurement of "tail moment"” value ([2]; UVB control 106,563) was 80,221. The “% of "tail moment" relative to UV control” value ([2]; UVB control = 100) was 75%.

In the case of “Ser-Cys-Ile-Asn-Thr (SCINT) [SEQ ID No. 1]”, the “amount of intracellular ATP compared to the untreated cells” value (dermal fibroblasts; after 3 hours) is reported as “clear increase” and the “increase in the amount of intracellular ATP compared to the untreated cells” value (dermal fibroblasts; after one hour) is reported as 43%.

For “Ser-Cys-Ile-Asn-Ser (SCINS) [SEQ ID No. 5]”, the “total enzymatic activity of aconitase after UVB irradiation” value (aconitase; UVB 100 mJ/cm^2, peptide treatment before (48 hr) and after (24 hr) irradiation) was “enabled the observed reduction to be limited”.
